Measurements reported in PMC9770967, “Native holdup (nHU) to measure binding affinities from cell extracts” (Science Advances, 2022).
*1 amine or outer side, *2 acyl side, *3 side chain or, on linkers, in order; H or OH if unused. Where a SMILES comes first, the peptide text is derived from it. The star is where a group is joined. X1 = O=C(CCCC[C@@H]1SC[C@@H]2NC(=O)N[C@@H]21)NCCCOCCOCCOCCCN*; Suc = O=C(CCC(=O)[*:2])[*:1]

What was measured:
SCRIB PDZ2 = conditions: fragmentomic, isolated PDZ domain; cited from earlier work
Excerpt: (§1) Supplement sciadv.ade3828_table_s1.zip/sciadv.ade3828_table_s1.xlsx, sheet "nHU-WB_SP"

SCRIB PDZ3 = conditions: fragmentomic, isolated PDZ domain; cited from earlier work
Excerpt: as §1

SCRIB PDZ1 = conditions: fragmentomic, isolated PDZ domain; cited from earlier work
Excerpt: Supplement sciadv.ade3828_table_s1.zip/sciadv.ade3828_table_s1.xlsx, sheet "nHU-WB_SP" | column: Domain-motif fragmentomic affinities (ProfAff)

[1] = target: isolated PDZ domain of SNX27; conditions: 10-mer PBM peptide vs isolated PDZ domain, holdup; cited from earlier work
SNX27_PDZ = test: nHU-MS, SNX27_PDZ bait, total Jurkat extracts, series 2 (Exploris MS); format: binding, human; conditions: Jurkat, series 2; n = 3
Excerpt: (§2) To further establish the repeatability and robustness of the nHU-MS assay, we repeated the experiments using a different mass spectrometer and six different PDZ domain baits taken from SCRIB (PDZ_1 and PDZ_2), discs large MAGUK scaffold protein 1 (DLG1, PDZ_1, and PDZ_2), Tax1 binding protein 3 (TAX1BP3), and SNX27 (fig. S3B and table S1). […] Of the studied baits, the PDZ domain of SNX27 turned out to be the most promiscuous with 103 statistically significant interaction partners (while 180 SNX27 binding partners were identified in total on the basis of the three independent nHU-MS experiments).
(§3) For saturating streptavidin resin with biotinylated peptides or biotin, 50 μl of streptavidin resin was mixed with biotin or peptide at 40 to 60 μM concentration in 6 to 6.5 resin volume for 60 min. To saturate streptavidin resin with biotinylated proteins, 50 μl of streptavidin resin (Streptavidin Sepharose High Performance, Cytiva) was mixed with biotinylated MBP or MBP-PDZ at 40 to 50 μM concentration in 20× resin volume for 60 min. After saturation, resins were washed a single time [10 resin volume, holdup buffer: 50 mM tris (pH 7.5), 300 mM NaCl, and 1 mM TCEP, 0.22-μm filtered] and were depleted with biotin (10 resin volume, 10 min, holdup buffer supplemented with 100 μM biotin). Last, resins were washed two times (10 resin volume, holdup buffer).
(§4) For single-point nHU experiments carried out at ~10 μM bait concentration, 50 μl of saturated streptavidin resin was mixed with 200 μl of cell lysate (2 mg/ml). Titration experiments were carried out by mixing control and bait-saturated resin and keeping the total resin volume constant; e.g., ~5 μM bait concentration can be achieved by mixing 25 μl of bait-saturated streptavidin resin with 25 μl of control resin and 200 μl of cell lysate (2 mg/ml). Control and bait-saturated resins were prepared in larger amounts, and a serial dilution was prepared with these presaturated resins to achieve different resin ratios.
(§5) Unless specified elswhere, the nHU mixture was incubated at 4°C for 2 hours. After the incubation ended, the resin was separated from the supernatant by a brief centrifugation (15 s, 2000 g). Then, half of the supernatant was removed by pipetting without any delay to avoid any resin contamination; e.g., 100 μl of supernatant is collected if 200 μl of cell lysate was used as analyte. Alternatively, the supernatant can be centrifuged an additional time to clarify it further, removing any possible resin contamination. In principle, the separation of the supernatant should be as fast as possible since any delay can perturb the equilibrium. […] Alternatively, the resin can be separated from the supernatant using filter plates (e.g., various products of Millipore, Burlington, MA) or spin columns (e.g., Pierce spin cups—cellulose acetate filter from Thermo Fisher Scientific, Waltham, MA) to achieve faster separation.
(§6) The nHU samples were precipitated with trichloroacetic acid (TCA) 20% overnight at 4°C and centrifuged at 14,000 rpm for 10 min at 4°C. The protein pellets were washed twice with 1 ml of cold acetone and air-dried. The protein extracts were solubilized in 8 M urea, reduced with 5 mM TCEP for 30 min, and alkylated with 10 mM iodoacetamide for 30 min in the dark. Double digestion was performed at 37°C with 500 ng of endoproteinase Lys-C (Wako, Richmond, USA) for 4 hours, followed by fourfold dilution and an overnight digestion with 500 ng of trypsin (Promega, Charbonnieres les Bains, France). Peptide mixtures were then desalted on a C18 spin-column and dried on a speed vacuum.
(§7) Samples were analyzed using an Ultimate 3000 nano-RSLC coupled in line via a nano-electrospray ionization source, with an LTQ-Orbitrap ELITE mass spectrometer (Thermo Fisher Scientific, San Jose, CA) or with the Orbitrap Exploris 480 mass spectrometer (Thermo Fisher Scientific, Bremen, Germany) equipped with a high field asymmetric ion mobility spectrometry (FAIMS) module. […]

TX1BP3_PDZ = test: nHU-MS, TX1BP3_PDZ (TAX1BP3) bait, total Jurkat extracts (Exploris MS); format: binding, human; conditions: nHU-MS, total Jurkat extract; for BI: TX1BP3_PDZ bait vs MBP; for Difference log2: TX1BP3_PDZ vs MBP; for Ratio TX1BP3/MBP: TX1BP3_PDZ
Excerpt: as §2, §3, §4, §5, §6, §7

DLG1_PDZ_1 = test: nHU-MS, DLG1_PDZ_1 bait, total Jurkat extracts (Exploris MS); format: binding, human; conditions: for Ratio DLG1_1/MBP: DLG1_PDZ_1, total Jurkat extract; for BI: DLG1_PDZ_1 bait vs MBP; for BI / pKd / Difference log2: total Jurkat extract; for pKd: DLG1_PDZ_1 bait, not filtered for significance (pKdsign N/D); for Difference log2: DLG1_PDZ_1 vs MBP
Excerpt: as §2, §3, §4, §5, §6, §7

DLG1_PDZ_2 = test: nHU-MS, DLG1_PDZ_2 bait, total Jurkat extracts (Exploris MS); format: binding, human; conditions: Jurkat extract; for Difference log2 / Ratio DLG1_2/MBP: DLG1_PDZ_2 bait vs MBP; for BI: DLG1_PDZ_2 bait
Excerpt: as §2, §3, §4, §5, §6, §7

SCRIB_PDZ_1 = test: nHU-MS, SCRIB_PDZ_1 bait, total Jurkat extracts (Exploris MS); format: binding, human; conditions: nHU-MS; for Ratio SCRIB_1/MBP: SCRIB_PDZ_1, total Jurkat extract; for BI: SCRIB_PDZ_1 bait vs MBP; for Difference log2: SCRIB_PDZ_1 vs MBP
Excerpt: as §2, §3, §4, §5, §6, §7

SCRIB_PDZ_2 = test: nHU-MS, SCRIB_PDZ_2 bait, total Jurkat extracts (Exploris MS); format: binding, human; conditions: nHU-MS; for Ratio SCRIB_2/MBP: SCRIB_PDZ_2, total Jurkat extract; for BI: SCRIB_PDZ_2 bait vs MBP; for BI / Difference log2: total Jurkat extract; for Difference log2: SCRIB_PDZ_2 vs MBP
Excerpt: as §2, §3, §4, §5, §6, §7

Row | pKd (DLG1_PDZ_1) | Compound | BI (SNX27_PDZ) | Difference log2 (SNX27_PDZ) | Ratio SNX27/MBP (SNX27_PDZ) | BI (TX1BP3_PDZ) | Difference log2 (TX1BP3_PDZ) | Ratio TX1BP3/MBP (TX1BP3_PDZ) | Ratio DLG1_1/MBP (DLG1_PDZ_1) | BI (DLG1_PDZ_1) | Difference log2 (DLG1_PDZ_1) | Difference log2 (DLG1_PDZ_2) | Ratio DLG1_2/MBP (DLG1_PDZ_2) | BI (DLG1_PDZ_2) | Ratio SCRIB_1/MBP (SCRIB_PDZ_1) | BI (SCRIB_PDZ_1; total Jurkat extract) | Difference log2 (SCRIB_PDZ_1; total Jurkat extract) | Ratio SCRIB_2/MBP (SCRIB_PDZ_2) | BI (SCRIB_PDZ_2) | Difference log2 (SCRIB_PDZ_2) | further results
1 |  | CC[C@H](C)[C@H](NC(=O)CCC(=O)NCCCOCCOCCOCCCNC(=O)CCCC[C@@H]1SC[C@@H]2NC(=O)N[C@@H]21)C(=O)N[C@@H](CC(=O)O)C(=O)N[C@@H](CC(N)=O)C(=O)N[C@@H](CC(=O)O)C(=O)N[C@H](C(=O)N[C@@H](CCC(=O)O)C(=O)N[C@@H](CO)C(=O)N[C@H](C(=O)N[C@@H](C)C(=O)N[C@@H](CC(C)C)C(=O)O)[C@@H](C)O)[C@@H](C)O [ARHGAP17] ({X1-Suc}-IDNDTESTAL-OH; C-terminus assumed) |  |  |  |  |  |  |  |  |  |  |  |  |  |  |  |  |  |  | pKd_PDZ2 (SCRIB PDZ2): 3.61; pKd_PDZ3 (SCRIB PDZ3): 4.57; pKd_PDZ1 (SCRIB PDZ1): 4.91; pKd (fragmentomic affinity) [1]: 4.97
2 | 3.493 | PPIAL4C: Peptidyl-prolyl cis-trans isomerase A-like 4C | -0.1115 | 0.1526 | 1.112 | -0.05401 | 0.07589 | 1.054 | 0.9698 | 0.03017 | -0.0442 | 0.05781 | 1.041 | -0.04089 | 0.9925 | 0.007486 | -0.01084 | 1.136 | -0.1361 | 0.1841 | pKd (SCRIB_PDZ_1; SCRIB_PDZ_1 bait, total Jurkat extract, not filtered for significance (pKdsign N/D)): 2.878
3 | 3.996 | PIGBOS1: Protein PIGBOS1 (MFRRLTFAQLLFATVLGIAGGVYIFQPVFEQYAKDQKELKEKMQLVQESEEKKS; UniProt A0A0B4J2F0 1-54, looked up) | -0.08774 | 0.1213 | 1.088 | -0.09136 | 0.1261 | 1.091 | 0.91 | 0.08999 | -0.136 | 0.04834 | 1.034 | -0.03407 | 1.118 | -0.1177 | 0.1605 | 1.081 | -0.08098 | 0.1123 | 
